# Values quoted from earlier work, collected in patent US20170296470A1, “TWO SPEED MONOLOTHIC SYSTEM FOR CONTROLLED RELEASE OF DRUGS” (Matripharm Inc., priority 2011, published 2017).
# Details: for numbers needed to harm: one out of N patients likely to suffer a first-time heart attack: patients in the age group of 65 and over; for risk of heart attack increased: patients prescribed the NSAID vs those who had not taken these drugs in the previous three years
SMILES,numbers needed to harm: one out of N patients likely to suffer a first-time heart attack [patients],risk of heart attack increased [%]
O=C(O)Cc1ccccc1Nc1c(Cl)cccc1Cl [diclofenac],521,55
CC(C)Cc1ccc(C(C)C(=O)O)cc1 (centres unmarked) [ibuprofen],1005,24
CS(=O)(=O)c1ccc(C2=C(c3ccccc3)C(=O)OC2)cc1 [rofecoxib],695,
